Ends that are not written are not given here. * marks the point of attachment. A∗ = N-allylalanine, C=CCN[C@@H](C)C(=O)*; code X = not defined here
Assays:
[1] = test system: IMR90 (human normal fibroblasts); experiment: Cell proliferation (MTT); type: cell-based; conditions: for effect on efficacy of cis-platinum on proliferation: IMR90 fibroblasts, 10 μM with cis-platinum 10 μM; for cell proliferation, single-agent: human normal IMR90 fibroblasts, 10 μM
Procedure: (§1) Cell proliferation was assessed using the MTT reagent (Roche Molecular Biochemicals, Nutley, N.J.) to detect metabolic active cells. Absorbance was measured at 570 nm in the Spectra Max 190 ELISA reader (Molecular Devices, Sunnyvale, Calif.) after overnight incubation. For clonogenic survival, 200 cells per well were plated in complete growth media and allowed to grow until visible colonies were formed (14 days). Cell colonies were fixed with cold methanol, stained with 0.25% crystal violet in 25% methanol, washed, and air dried. For apoptosis, cells were harvested, washed with cold PBS, and co-stained with Annexin V and propidium iodide according to the manufacturer's protocol (ApoAlert Annexin V-FITC Apoptosis Kit; Clontech). Apoptotic cells were analyzed using BD FACS Calibur (BD Biosciences Corporation, Franklin Lakes, N.J.) at The Ohio State University Comprehensive Cancer Center Analytical Cytometry Core.

[2] = test system: UMSCC47 cells; experiment: Cell proliferation (MTT); type: cell-based, human; conditions: UMSCC47 cells; for cell proliferation, single-agent: 10 μM, 24-72 hours
Procedure: as §1

[3] = test system: UMSCC74A cells; experiment: Cell proliferation (MTT); type: cell-based, human; conditions: for cell proliferation, single-agent: HPV-negative UMSCC74A cells, 10 μM; for effect on efficacy of cis-platinum on proliferation: UMSCC74A cells, 10 μM with cis-platinum 10 μM
Procedure: as §1

[4] = test system: p300, p53, p21, miR-34a, miR-200c; experiment: Quantitative real-time PCR of p300, p53, p21, miR-34a and miR-200c expression; type: cell-based, human; conditions: 10 μM, 24 hours; for expression of p300, p53, and p53-regulated genes: UMSCC74A
Procedure: Cells were extracted for total RNA using the TRIzol® reagent (Invitrogen) or TaqMan PreAmp Cells-to-CT kit (Applied Biosystems). Expression of p300, p53, p21, miR-34a and miR-200c were determined using the Applied Biosystems 7900HT Fast Real-Time PCR System with validated TaqMan gene expression assays (Applied Biosystems). p53, p300, and p21 expression were normalized to GADPH and miR-34a and miR-200c expression were normalized to RNU44 using the ΔΔCt method.

[5] = test system: p53; experiment: p53 transcriptional activity (Cignal p53 Firefly/Renilla luciferase reporter); type: cell-based, human; conditions: 24 hours; for p53 activity, increase: HPV-positive UMSCC47 cells, vs vehicle; for p53 activity, increase / p53 activity: 10 μM; for p53 activity: UMSCC74A (HPV-negative, p53 wildtype)
Procedure: Cells were transfected with 100 ng of Cignal p53 reporter (SABiosciences, Valencia, Calif.) using Lipofectamine 2000. Cignal p53 reporter contains tandem repeats of the p53 consensus transcriptional response element. After 48 hours, cells were washed with cold PBS, lysed in passive lysis buffer (Promega), and measured for Firefly/Renilla dual luciferase activities in a luminometer using the Dual-Light System (Applied Biosystems, Foster City, Calif.). […] to control for transfection efficiency. A modification to the protocol was used for compound treatment. UMSCC47 cells were transfected with 100 ng of Cignal p53 reporter. After 24 hours, cells were treated with vehicle, CH1iB (10 μM), cis-platinum (10 μM), or combination of CH1iB (10 μM) and cis-platinum (10 μM) and measured for Firefly/Renilla dual luciferase activities 24 hours post-treatment.

[6] = test system: p53; experiment: Western blot of total and acetylated[K382] p53 levels; type: cell-based, human; conditions: 24 hours; for acetylated p53 levels / p53 accumulation / p53 levels: 10 μM; for p53 levels: UMSCC74A
Procedure: Whole cell lysates were mixed with Laemmli loading buffer, boiled, separated by SDS-PAGE, and transferred to a nitrocellulose membrane. Subsequently, immunoblot analyses were performed using antibodies specific to V5 (Invitrogen), p53 (sc-126, Santa Cruz Biotechnology, Santa Cruz, Calif.), or acetylated[[…]]-p53 (2525, Cell Signaling Technology). The signal was developed using the SuperSignal Western Blotting Kit (Pierce, Rockford, Ill.).

[7] = molecular target: CH1 domain of p300 (Homo sapiens, UniProt Q09472); conditions: competes with endogenous HIF-1α for p300; Henchey et al. 2010; cited from earlier work
CH1 domain of p300, sequence (Q09472 whole entry, the tested form may be a part): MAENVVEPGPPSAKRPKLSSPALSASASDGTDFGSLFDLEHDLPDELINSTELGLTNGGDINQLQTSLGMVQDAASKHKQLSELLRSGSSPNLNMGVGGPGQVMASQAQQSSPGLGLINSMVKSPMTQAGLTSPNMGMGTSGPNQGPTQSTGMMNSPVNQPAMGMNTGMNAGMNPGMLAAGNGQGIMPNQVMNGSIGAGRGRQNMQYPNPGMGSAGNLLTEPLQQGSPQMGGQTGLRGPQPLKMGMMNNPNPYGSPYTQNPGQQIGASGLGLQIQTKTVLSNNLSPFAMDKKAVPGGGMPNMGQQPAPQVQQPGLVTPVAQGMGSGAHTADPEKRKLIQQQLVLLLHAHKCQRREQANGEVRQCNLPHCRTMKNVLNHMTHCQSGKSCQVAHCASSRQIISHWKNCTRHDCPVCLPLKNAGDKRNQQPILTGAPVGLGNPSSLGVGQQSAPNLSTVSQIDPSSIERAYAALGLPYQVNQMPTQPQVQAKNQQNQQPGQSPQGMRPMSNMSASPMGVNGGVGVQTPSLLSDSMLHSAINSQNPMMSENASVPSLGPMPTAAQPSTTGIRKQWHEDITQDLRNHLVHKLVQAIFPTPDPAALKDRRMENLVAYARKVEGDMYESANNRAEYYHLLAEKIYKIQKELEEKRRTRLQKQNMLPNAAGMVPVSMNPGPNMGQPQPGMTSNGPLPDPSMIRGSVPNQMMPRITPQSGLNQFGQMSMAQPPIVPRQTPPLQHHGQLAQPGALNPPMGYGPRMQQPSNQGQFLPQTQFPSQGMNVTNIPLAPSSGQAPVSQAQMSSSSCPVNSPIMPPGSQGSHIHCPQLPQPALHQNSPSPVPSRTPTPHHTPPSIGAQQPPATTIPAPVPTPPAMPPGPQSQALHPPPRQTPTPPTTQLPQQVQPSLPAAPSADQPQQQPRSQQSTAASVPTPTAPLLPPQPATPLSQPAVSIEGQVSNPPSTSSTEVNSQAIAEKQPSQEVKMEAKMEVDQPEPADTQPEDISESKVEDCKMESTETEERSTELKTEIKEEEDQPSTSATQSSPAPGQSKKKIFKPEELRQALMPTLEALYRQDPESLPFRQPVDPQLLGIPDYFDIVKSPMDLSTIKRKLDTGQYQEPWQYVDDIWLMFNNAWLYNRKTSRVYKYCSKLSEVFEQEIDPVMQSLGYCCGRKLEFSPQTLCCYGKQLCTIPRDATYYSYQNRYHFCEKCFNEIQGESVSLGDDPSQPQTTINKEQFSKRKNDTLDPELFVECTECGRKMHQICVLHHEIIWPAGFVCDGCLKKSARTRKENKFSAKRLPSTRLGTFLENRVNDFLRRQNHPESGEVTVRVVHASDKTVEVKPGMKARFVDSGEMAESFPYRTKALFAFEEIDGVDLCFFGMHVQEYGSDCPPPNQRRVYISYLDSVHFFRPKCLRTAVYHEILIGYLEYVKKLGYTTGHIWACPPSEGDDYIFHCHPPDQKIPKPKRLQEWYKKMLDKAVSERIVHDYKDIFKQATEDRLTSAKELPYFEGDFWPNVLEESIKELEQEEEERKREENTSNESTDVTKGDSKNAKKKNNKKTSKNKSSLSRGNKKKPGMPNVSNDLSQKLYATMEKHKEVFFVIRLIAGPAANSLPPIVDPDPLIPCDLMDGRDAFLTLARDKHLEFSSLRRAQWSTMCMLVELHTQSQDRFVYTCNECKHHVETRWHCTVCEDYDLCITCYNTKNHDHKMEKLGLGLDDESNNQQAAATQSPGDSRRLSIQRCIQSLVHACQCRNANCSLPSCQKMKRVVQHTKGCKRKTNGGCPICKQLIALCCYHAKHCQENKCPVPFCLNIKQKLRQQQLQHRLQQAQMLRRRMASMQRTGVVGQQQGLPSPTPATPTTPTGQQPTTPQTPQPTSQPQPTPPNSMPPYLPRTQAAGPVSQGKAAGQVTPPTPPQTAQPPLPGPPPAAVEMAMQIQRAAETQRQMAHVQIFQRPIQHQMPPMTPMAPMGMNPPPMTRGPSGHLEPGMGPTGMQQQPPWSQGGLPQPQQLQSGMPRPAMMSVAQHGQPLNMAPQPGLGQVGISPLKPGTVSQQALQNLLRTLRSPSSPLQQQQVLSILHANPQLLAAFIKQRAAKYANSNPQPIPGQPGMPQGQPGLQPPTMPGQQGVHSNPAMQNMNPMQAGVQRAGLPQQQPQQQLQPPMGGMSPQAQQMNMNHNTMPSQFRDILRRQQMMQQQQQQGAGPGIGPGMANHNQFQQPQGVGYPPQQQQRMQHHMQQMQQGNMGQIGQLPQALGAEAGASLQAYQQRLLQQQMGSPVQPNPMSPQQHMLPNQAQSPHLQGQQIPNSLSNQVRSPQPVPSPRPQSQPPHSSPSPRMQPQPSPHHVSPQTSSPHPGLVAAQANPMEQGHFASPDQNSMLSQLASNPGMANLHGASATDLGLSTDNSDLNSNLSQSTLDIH

[8] = molecular target: T1, HPV16 E6-p300 (Homo sapiens, UniProt Q09472); experiment: Immunoprecipitation of HPV16 E6-p300 association; type: cell-based; conditions: UMSCC47 cells, 10 μM, 24 hours
T1 construct: Cell lysates were extracted, immunoprecipitated with anti-p300 antibody, and immunoblotted with anti-E6 antibody; endogenous in cells; host or cells: UMSCC47 (HPV16-positive HNSCC)
T1 sequence (Q09472 whole entry): as the sequence (Q09472 whole entry, the tested form may be a part) above
Procedure: Cells were lysed with NP buffer [50 mM Tris (pH 8.0), 150 mM NaCl, 0.5% deoxycholate, 0.1% SDS, and 1.0% NP-40] containing 1× Protease Inhibitor Cocktail (Roche, Switzerland) at 4° C. with gentle rocking for 15 min. The supernatant was pre-cleared to block nonspecific binding with 50 μL protein A/G Agarose beads (Pierce Biotechnology) that had been pre-washed with NP buffer before use. Equal amounts of anti-E6 antibody (Abcam), anti-p300 antibody (Millipore), or IgG antibody (Cell Signaling) were added to the respective samples. After 4 hours incubation at 4° C., 50 μL pre-washed protein A/G-agarose beads were added to each tube and immunoprecipitation was performed by rocking overnight at 4° C. The immunoprecipitated complexes were washed with NP buffer and then eluted using 2×SDS sample buffer. Eluted sample and 10% of input were resolved by SDS-PAGE for Western blot analysis with anti-E6, anti-p300, or anti-V5 antibodies.

[9] = test system: UMSCC47 cells; experiment: Clonogenic survival (crystal violet); type: cell-based, human; conditions: UMSCC47 cells, 10 μM each agent, 14 days, vs vehicle
Procedure: as §1

[10] = test system: UMSCC47 cells; experiment: Tumorsphere formation; type: cell-based, human; conditions: UMSCC47 cells, 10 μM, 7 days, vs vehicle
Procedure: Cells were harvested and seeded in a serum-free defined medium consisting of KSF medium supplemented with epidermal growth factor, basic fibroblast growth factor, insulin, and hydrocortisone in low-attachment plates (Corning Incorporated, Corning, N.Y.) for tumorspheres. Tumorsphere formation efficiency was calculated as the number of tumorspheres ([…] in diameter) formed in 7 days divided by the original number of cells seeded. Tumorsphere diameter was measured using NIS-Elements software.

[11] = test system: UMSCC47 cells; experiment: Apoptosis (Annexin V FACS); type: cell-based, human; conditions: 10 μM, 24 hours, vs vehicle
Procedure: as §1

[12] = UMSCC47 cells, 10 μM with cis-platinum 10 μM

| Substance | effect on efficacy of cis-platinum on proliferation [1] | cell proliferation, single-agent [1] | cell proliferation, single-agent [2] | cell proliferation, single-agent [3] | effect on efficacy of cis-platinum on proliferation [3] | expression of p300, p53, and p53-regulated genes [4] | p53 activity, increase [5] | p53 activity [5] | acetylated p53 levels ([6]; UMSCC47 cells) | p53 accumulation ([6]; UMSCC47 cells) | p53 levels [6] | HIF-1α-mediated transcription of vascular endothelial growth factor [7] | association between E6 and p300 [8] | clonogenic survival, reduction/inhibition [9] [%] | effect on anti-proliferative efficacy of cis-platinum ([2]; 10 μM with cis-platinum 10 μM) | p21, miR-34a, and miR-200c expression ([4]; UMSCC47 cells) | effect of cis-platinum on p53 activity [5, 12] | effect of cis-platinum on p53 accumulation and acetylation [6, 12] | tumorsphere formation, reduced by [10] [%] | apoptosis, enhanced by [11] [%] |
| --- | --- | --- | --- | --- | --- | --- | --- | --- | --- | --- | --- | --- | --- | --- | --- | --- | --- | --- | --- | --- |
| XTAA*DCEYNAR ({code X-Thr-Ala-A∗}-DCEYNAR; staple (positions not given here); reading uncertain; also: HBS: 4-pentenoic acid, N-allylalanine, printed as XTAA*DCEYNAR) [CH1iA, hydrogen bond surrogate stabilized α-helical mimic of HIF-1α targeting site A of p300 CH1; X = 4-pentenoic acid, A* = N-allylalanine, reference compound] | did not augment | no effect | inactive | no effect | did not augment | unchanged | no effect | did not modulate | no effect | no effect | did not modulate | reduction | – | – | – | – | – | – | – | – |
| XELA*RALDQ-NH2 [CH1iB] | did not augment | no effect | inhibited the proliferation | no effect | did not augment | unchanged | 71% | did not modulate | enhanced | enhanced | did not modulate | – | reduced | 35 | potentiated | modest but significant increase | potentiated | potentiated | 20 | 353 |

Source: US20140205681A1, “HYDROGEN-BOND SURROGATE PEPTIDES AND PEPTIDOMIMETICS FOR p53 REACTIVATION” (New York University, priority 2013, published 2014)
